Measured values from patent publication US8785351B2, “Herbicidal compositions containing bentazon and ALS inhibitor and ACCase inhibitor” (Dow AgroSciences LLC, priority 2012, dated 2014).

Legend:
Experiment in all cases: Postemergence herbicidal activity of mixtures in the field (direct-seeded rice), visual weed control
Type in all cases: in vivo
[1] = test system: Echinochloa crus-galli (ECHCG, barnyardgrass); conditions: rice field trials
Description: (§1) Evaluation of Postemergence Herbicidal Activity of Mixtures in the Field
(§2) Field trials were conducted in Vietnam and Taiwan in cultivated direct-seeded rice using standard herbicide small plot research methodology. Plots varied from 1×2 meter (m) to 4×5 m (width×length) with 3-4 replicates per treatment. The rice crop was grown using normal cultural practices for fertilization, seeding, watering, flooding and maintenance to ensure good growth of the crop and the weeds.
(§3) All treatments in the field trials were applied using a backpack air sprayer with flat fan nozzles calibrated to apply 320 to 450 L/ha spray volume at approximately 30 PSI. Commercially available products of penoxsulam (Clipper 25OD), bispyribac-sodium (Nominee 100SC), bentazon-sodium (Basagran 480SL), cyhalofop-butyl (Clincher 100EC), and fenoxaprop-P-ethyl (Whip S) were mixed in water at appropriate formulated product rates to achieve the desired rates based on a unit area of application (hectare) to achieve the desired rates as shown. Treatments were rated at 7 to 42 days after application (DAA) as compared to the untreated control plants. Visual weed control was scored on a scale of 0 to 100 percent where 0 corresponds to no injury and 100 corresponds to complete kill.
(§4) All treatment results, both for the single product and mixtures, are an average of 3 to 4 replicates and the tank mix interactions are significant at the […] level.
(§5) Colby's equation was used to determine the herbicidal effects expected from the mixtures (Colby, S. R. Calculation of the synergistic and antagonistic response of herbicide combinations. Weeds 1967, 15, 20-22.).
(§6) The following equation was used to calculate the expected activity of mixtures containing […]: Expected=A+B+C−(AB+AC+BC)/100+(ABC)/10,000
(§7) A=observed efficacy of active ingredient A at the same concentration as used in the mixture.
(§8) B=observed efficacy of active ingredient B at the same concentration as used in the mixture.
(§9) C=observed efficacy of active ingredient C at the same concentration as used in the mixture.
(§10) All comparisons are an average of 3 to 4 replicates and are significant at the […] level.

[2] = test system: Monochoria vaginalis (MOOVA, monochoria); conditions: rice field trials
Description: as §1, §2, §3, §4, §5, §6, §7, §8, §9, §10

[3] = test system: Fimbristylis miliacea (FIMMI, globe fringerush); conditions: grams ai/ha: penoxsulam 10, bentazon-Na 900, cyhalofop-butyl 75, each alone or all three mixed, rice field trials
Description: as §1, §2, §3, §4, §5, §6, §7, §8, §9, §10

[4] = test system: Leptochloa chinensis (LEFCH, Chinese sprangletop); conditions: grams ai/ha: penoxsulam 1.6, bentazon-Na 112.5, cyhalofop-butyl 37.5, each alone or all three mixed, rice field trials
Description: as §1, §2, §3, §4, §5, §6, §7, §8, §9, §10

[5] = test system: Cyperus iria (CYPIR, rice flatsedge); conditions: grams ai/ha: penoxsulam 1, bentazon-Na 112.5, cyhalofop-butyl 9.4, each alone or all three mixed, rice field trials
Description: as §1, §2, §3, §4, §5, §6, §7, §8, §9, §10

[6] = grams ai/ha: penoxsulam 4 alone (6 in the mix), bentazon-Na 450, fenoxaprop-P-ethyl 8, each alone or all three mixed
[7] = grams ai/ha: bispyribac-Na 4, bentazon-Na 225, cyhalofop-butyl 75, each alone or all three mixed
[8] = grams ai/ha: penoxsulam 10, bentazon-Na 900, cyhalofop-butyl 75, each alone or all three mixed
[9] = grams ai/ha: penoxsulam 5, bentazon-Na 450, cyhalofop-butyl 37.5, each alone or all three mixed

SMILES	% Visual Control ECHCG (7 DAA) Obs [1, 6] [%]	% Visual Control MOOVA (7 DAA) Obs [2, 6] [%]	% Visual Control ECHCG (14 DAA) Obs [1, 7] [%]	% Visual Control ECHCG (7 DAA) Obs [1, 8] [%]	% Visual Control ECHCG (14 DAA) Obs [1, 8] [%]	% Visual Control ECHCG (28 DAA) Obs [1, 8] [%]	% Visual Control MOOVA (7 DAA) Obs [2, 9] [%]	% Visual Control MOOVA (14 DAA) Obs [2, 9] [%]	% Visual Control FIMMI (42 DAA) Obs [3] [%]	% Visual Control LEFCH (7 DAA) Obs [4] [%]	% Visual Control CYPIR (42 DAA) Obs [5] [%]
CCOC(=O)[C@@H](C)Oc1ccc(Oc2nc3ccc(Cl)cc3o2)cc1 [Fenoxaprop-P (Ethyl), (R)-ethyl-2-[4-(6-chloro-1,3-benzoxazol-2-yloxy)phenoxy]propanoate]	0	0									
COc1cc(OC)nc(Oc2cccc(Oc3nc(OC)cc(OC)n3)c2C(=O)[O-])n1.[Na+] [Bispyribac (Na), sodium 2,6-bis(4,6-dimethoxypyrimidin-2-yloxy)benzoate]			0								
CC(C)N1C(=O)c2ccccc2NS1(=O)=O [Bentazon (Na), 3-(1-methylethyl)-1H-2,1,3-benzothiadiazin-4(3H)-one 2,2-dioxide]	0	17	0	0	0	0	0	0	0	0	63
CCCCOC(=O)[C@@H](C)Oc1ccc(Oc2ccc(C#N)cc2F)cc1 [Cyhalofop (Butyl), (R)-butyl 2-[4-(4-cyano-2-fluorophenoxy)phenoxy]propanoate]			40	37	43	40	0	0	60	83	0
COc1cnc(OC)n2nc(NS(=O)(=O)c3c(OCC(F)F)cccc3C(F)(F)F)nc12 [Penoxsulam, 2-(2,2-difluoroethoxy)-N-(5,8-dimethoxy[1,2,4]triazolo[1,5-c]pyrimidin-2-yl)-6-(trifluoromethyl)benzenesulfonamide]	61	22		58	60	60	77	87	78	0	75
